The subject of assay [1] is CIA rat. Kind of assay: Arthritis severity score in collagen-induced arthritis (CIA) animal model. In kind it is in vivo, Lewis rats. On the set-up: Arthritis severity score: scale not given here. The conditions noted are these: CIA rats; for Progression of arthritis severity after Day 17: compared to the CIA group. The method, then:
(§1) Lewis rats were bred under the condition with a temperature of 21° C. to 25° C., a humidity level of 40% to 70%, and a lighting period of 12 hours (7 a.m. to 7 p.m.). The rats had free access to the feed. All the rats were monitored for at least 6 days to ensure their health to prepare a collagen-induced arthritis (CIA) animal model.
(§2) A collagen emulsion was prepared by evenly mixing collagen and IFA at a volume ratio of 1:1 using a homogenizer in a cold water bath. On Day 1, 200 μL of the collagen emulsion was injected subcutaneously at the base of the rat's tail, followed by a booster injection of 100 μL of the collagen emulsion at a different site on the base of the tail on Day 8. All the rats successfully developed CIA by Day 17 (hereinafter referred to as “CIA rat”).
(§3) As described in Preparation example C, all the rats successfully developed CIA by Day 17. Therefore, the CIA rats were randomly divided into four groups from Day 17 to administer the following solutions until the rats were sacrificed on Day 24, wherein the healthy rats not to induce arthritis were served as the control group: • (1) Control group (five healthy rats): 2 mL of PBS; • (2) CIA group (five CIA rats): 2 mL of PBS; • (3) MTX group (three CIA rats): 1 mg of MTX per kilogram of rat, dissolved in 2 mL of PBS; • (4) CMC-Zn group (five CIA rats): CMC-Zn at a zinc concentration of 0.075 mg, dissolved in 2 mL of PBS; and • (5) Modified CMC-Zn group (five CIA rats): modified CMC-Zn at a zinc concentration of 0.075 mg, dissolved in 2 mL of PBS.
(§4) The rat's paws were observed and their paw volumes were measured on Days 0, 3, 7, 10, 14, 17, 21 and 24. The arthritis severity of rats was evaluated by using the qualitative scoring system of Table 3, and the paw volume was determined by the following approach in accordance with the buoyancy principle of Archimedes' law: adding an appropriate amount of water into a beaker; placing the beaker on a scale and resetting to zero; placing the rat's paw into the water and immersing it to the target depth; and recoding the reading once it had stabilized.

Assay [2] relates to CIA rat. In words: Paw volume (average weight percentage of both paws) in collagen-induced arthritis (CIA) animal model. In kind it is in vivo, Lewis rats. The following applies: for Weight percentages of the rats' paws on Day 24 (FIG. 4): Day 24, compared to the untreated CIA rats (p value<0.05); for Weight percentages of the rats' paws over time (FIG. 3): after administration from Day 17, compared to the CIA group. The procedure: as §1, §2, §3, §4

The subject of a further assay is IL12P70. In words: ELISA analysis of IL12P70 in the medium of treated BMDCs. The following applies: BMDC media, all groups of the substance. In kind it is cell-based, mouse. The procedure:
The secretion level of IL12P70 in immature DCs is very low, whereas mature DCs secret a large amount of IL12P70, allowing it an indicator of DC maturation. In this example, the expression levels of the surface markers (CD11c, CD40, CD83, CD86) on the BMDCs were analyzed using flow cytometry, and the secretion level of IL12p70 in the BMDCs' medium was measured with an ELISA kit, to observe the effects of amino acid-chelated zinc on dendritic cell maturation.
(§5) After culturing for 48 hours, the cells and their medium in each group were collected to conduct the following analysis, respectively.
The media obtained from each group were placed into tubes, respectively, and the tubes were centrifuged (400×g) at 4° C. for 10 minutes to collect the supernatants. The IL12p70 standard was subjected to a serial dilution to provide a standard curve. The standards at various concentrations and the supernatants obtained from each group were added into a 96-well plate pre-coating with IL12p70 antibodies (100 μL per well, in duplicate). […] The absorbance value at 450 nm (OD450) in each well was detected within 3 minutes. Based on the standard curve resulted from the absorbance values of IL12p70 standards at various concentrations, the IL12p70 amounts corresponding to the absorbance values of each group were calculated as shown in Table 2.

For assay [3], the system named is mouse bone marrow dendritic cells (BMDCs). In words: Flow cytometry analysis of dendritic cell maturation surface markers on treated BMDCs. It counts as cell-based. The following applies: for Ability to inhibit dendritic cell maturation: all zinc concentrations, directly proportional to the zinc concentration; for CD11c expression level / CD40 expression level / CD80 expression level / CD83 expression level / CD86 expression level / MHC II expression level: 48 hours. The procedure: Mice were sacrificed with carbon dioxide and immersed in 75% alcohol. After immersing for 3 minutes, the mice were removed from the alcohol and wiped. Then, the mouse limbs were fixed on a Styrofoam board. Next, the entire femur and tibia were collected by carefully cutting off the mouse skin and muscle. A filter (100 μm) was placed in a 3-cm dish and 2 ml of RPMI-1640 medium was added into the dish. Two ends of the femur were cut, and the bone marrow was collected by repeatedly washing the femur with the cell medium using a 26 G syringe until the femur appeared white. The bone marrow in the tibia was also collected by the same method. The filter was scraped by the reverse side of 1 mL tip to break up the cell clumps in the bone marrow and washed with the cell medium in the dish several times. Then, the cell medium in the dish was collected and placed into a tube to centrifuge at 1500 rpm for 3 minutes. After centrifuging, the supernatant was removed and 1 mL of RBC lysis buffer was added into the tube. After standing for 5 minutes, the tube was centrifuged at 1500 rpm for 3 minutes again. After removing the supernatant, a milky-white pellet was obtained. The pellet was re-suspended with the DC medium and the cell number of the suspension thus obtained was counted.
The cell concentration of the suspension was adjusted to 5×10^5 cells per mL. 1 mL of the suspension was added into each well of a 24-well plate. The 24-well plate was incubated at 37.5° C. and 5% CO2 for 2 days. The unattached granulocytes were removed by carefully removing the cell medium, and then, 0.5 mL of DC medium was added into each well of the 24-well plate. After incubating 3 days, the medium in each well was replaced with 0.5 mL of fresh DC medium and continuously incubated for 3 days. The 24-well plate was taken out from the incubator, and the medium in each well was carefully removed. The bottom of each well was gently pipetted with 2 mL of PBS several times. The pipetted PBS was collected into a centrifuge tube to count the number of cells and analyze the expression level of CD11c using flow cytometry.
as §5
The cells obtained from (1-1) were counted and the cell concentration was adjusted with PBS to provide a cell suspension of 1×10^5 cells to 5×10^5 cells per 100 μL. 100 μL of the cell suspension was evenly mixed with 20 μL of FcR Blocking Reagent, and the mixture thus obtained was placed at 4° C. for 10 minutes. Furthermore, the antibodies of CD11c, CD40, CD80, CD83, CD86, MHC II and corresponding isotype control were added into the tubes containing the mixture, respectively. After vortexing for 1 second, the tubes were placed at room temperature in the dark for 15 minutes. Then, 300 μL of PBS was added into each tube, and after vortexing for 1 second, the tubes were centrifuged at 200×g for 5 minutes. The resulting supernatants were removed and the cells were re-suspended with 300 μL of PBS. Finally, the cell suspensions thus obtained were analyzed by flow cytometry, wherein all the cell suspension of each group were kept on ice in the dark until the analysis was conducted.
In general terms: Flow cytometry measures light scatter and fluorescence of single cells or particles in a stream.

Setting [4] is: Day 0 (before administration, which starts Day 17).
Setting [5] is: Day 17 (start of administration).
Where [6] appears, read: Day 21, administered from Day 17.
Where [7] appears, read: Day 24, administered from Day 17.
Setting [8] is: zinc concentration 3.27 mg/mL (low concentration).
[9] abbreviates: zinc concentration 6.54 mg/mL (medium concentration).
Setting [10] is: zinc concentration 13.08 mg/mL (high concentration).

As to `CN(Cc1cnc2nc(N)nc(N)c2n1)c1ccc(C(=O)N[C@@H](CCC(=O)O)C(=O)O)cc1` [MTX, Methotrexate, reference compound], the Arthritis severity score in the assay with CIA rat [1] (setting [4]) was 0; in the assay on CIA rat [1] (Day 3 (before administration)), 0; in the assay with CIA rat [1] (Day 7 (before administration)) it was 0; in the assay with CIA rat [1] (Day 10 (before administration)) it was 0; in the assay with CIA rat [1] (Day 14 (before administration)) it was 0.3; in the assay with CIA rat [1] (setting [5]) it was 3.7. In addition, the Arthritis severity score amounted to 3.7 with CIA rat [1] (setting [6]) and 3 with CIA rat [1] (setting [7]). The “Progression of arthritis severity after Day 17” value in the assay on CIA rat [1] is “slower progression or even reduction in arthritis severity”. For the same compound, the “Weight percentages of the rats' paws on Day 24 (FIG. 4)” value with CIA rat [2] is on record as “significantly decreased”. Further, in the assay on CIA rat [2], the “Weight percentages of the rats' paws over time (FIG. 3)” value was “gradually decreased”.
Regarding `O=S(=O)([O-])[O-].[Zn+2]` [Zinc sulfate, reference compound], the “IL12P70 in the media” value with IL12P70 is “not detected”. In addition, the “Ability to inhibit dendritic cell maturation” value in assay [3] is given as “demonstrated the ability to inhibit dendritic cell maturation”. Further, in assay [3] (setting [8]), the CD11c expression level came to 87.2, the CD40 expression level is given as 16.1, the CD80 expression level was 46.7 and the CD83 expression level is reported as 12.9. In assay [3] (setting [8]), the CD86 expression level is on record as 49.2 and the “MHC II expression level” value amounted to 16.8. In assay [3] (setting [9]), the CD11c expression level was found to be 85.4, the CD40 expression level amounted to 11.2, the CD80 expression level stood at 37.2 and the CD83 expression level was found to be 10.4. In assay [3] (setting [9]), the CD86 expression level was found to be 41.3 and the “MHC II expression level” value is given as 11.9. In assay [3] (setting [10]), this compound registered a CD11c expression level of 85.6, a CD40 expression level of 8.5, a CD80 expression level of 26.8 and a CD83 expression level of 6.68. Also, in assay [3] (setting [10]), the CD86 expression level was 26 and the “MHC II expression level” value was 8.08.
In the case of glycine-chelated zinc [CMC-Zn], the “IL12P70 in the media” value in the assay on IL12P70 is listed as “not detected”. In addition, the “Ability to inhibit dendritic cell maturation” value in assay [3] was “demonstrated the ability to inhibit dendritic cell maturation”. Besides, in assay [3] (low and medium concentration), the “Expression levels of CD80 and CD86 compared to the groups of zinc sulfate” value is given as “significantly decreased”. In assay [3] (low concentration (3.27 mg/mL zinc)), the “Expression levels of the markers compared to the Immature DC group” value was “even lower”. The results for the CD11c expression level in assay [3] (setting [8]), in assay [3] (setting [9]) and in assay [3] (setting [10]) were 88.3, 87.8 and 74.1, respectively. In addition, the CD40 expression level stood at 25 in assay [3] (setting [8]), 13.1 in assay [3] (setting [9]) and 6.24 in assay [3] (setting [10]). For the same compound, the CD80 expression level is reported as 39 in assay [3] (setting [8]), 23.7 in assay [3] (setting [9]) and 26.5 in assay [3] (setting [10]). The figures for the CD83 expression level in assay [3] (setting [8]), in assay [3] (setting [9]) and in assay [3] (setting [10]) were 16.1, 10.3 and 4.38, respectively. For the same compound, the results for the CD86 expression level in assay [3] (setting [8]), in assay [3] (setting [9]) and in assay [3] (setting [10]) were 37.9, 23.1 and 25.4, respectively. Further, the results for the “MHC II expression level” value in assay [3] (setting [8]), in assay [3] (setting [9]) and in assay [3] (setting [10]) were 25, 14 and 6.41, respectively. The Arthritis severity score is on record as 0 in the assay with CIA rat [1] (setting [4]); 0 in the assay with CIA rat [1] (Day 3 (before administration)); 0 with CIA rat [1] (Day 7 (before administration)); 0 in the assay on CIA rat [1] (Day 10 (before administration)); 0.4 with CIA rat [1] (Day 14 (before administration)); 3.8 with CIA rat [1] (setting [5]). Besides, the Arthritis severity score with CIA rat [1] (setting [6]) turned out to be 4.4; in the assay on CIA rat [1] (setting [7]), 4.6. Moreover, the “Progression of arthritis severity after Day 17” value with CIA rat [1] was “slower progression or even reduction in arthritis severity”. Besides, the “Weight percentages of the rats' paws on Day 24 (FIG. 4)” value in the assay with CIA rat [2] was “significantly decreased”. Moreover, the “Weight percentages of the rats' paws over time (FIG. 3)” value with CIA rat [2] is “gradually decreased”.
